Data from PubChem BioAssay AID1259407 (Chemical Carcinogenesis Research Information System (CCRIS), 2018).
Calls of active or inactive are those of the source. How the calls were made is not given here.

System: CCRIS mutagenicity, Ames/micronucleus/aberration tests
Assay: CCRIS mutagenicity studies
[1] = End Point: IN VITRO CHROMOSOMAL ABERRATIONS, Test System: CHINESE HAMSTER OVARY CELLS, Metabolic Activation: NONE
[2] = End Point: IN VITRO CHROMOSOMAL ABERRATIONS, Test System: CHINESE HAMSTER OVARY CELLS, Metabolic Activation: RAT, LIVER, S-9, AROCLOR 1254
[3] = Test System: AMES SALMONELLA TYPHIMURIUM, Strain/Indicator: TA98, Metabolic Activation: NONE, Method: PREINCUBATION
[4] = Test System: AMES SALMONELLA TYPHIMURIUM, Strain/Indicator: TA100, Metabolic Activation: NONE, Method: PREINCUBATION
[5] = Test System: AMES SALMONELLA TYPHIMURIUM, Strain/Indicator: TA1535, Metabolic Activation: NONE, Method: PREINCUBATION
[6] = Test System: AMES SALMONELLA TYPHIMURIUM, Strain/Indicator: TA1537, Metabolic Activation: NONE, Method: PREINCUBATION

In the case of `CC#N`, the mutagenic call [1] is reported as “inactive; negative”, the mutagenic call [2] is reported as “active; positive; statistically significant increase, but not dose-related” and the mutagenic call (Test System: AMES SALMONELLA TYPHIMURIUM, Strain/Indicator: TA98, Metabolic Activation: HAMSTER, LIVER, S-9, AROCLOR 1254 (10 OR 30%), Method: PREINCUBATION) is reported as “inactive; negative”. The mutagenic call [3] was “inactive; negative”, the mutagenic call (Test System: AMES SALMONELLA TYPHIMURIUM, Strain/Indicator: TA98, Metabolic Activation: RAT, LIVER, S-9, ACETONITRILE (AUTOINDUCTION), Method: PREINCUBATION) was “inactive; negative” and the mutagenic call (Test System: AMES SALMONELLA TYPHIMURIUM, Strain/Indicator: TA98, Metabolic Activation: RAT, LIVER, S-9, AROCLOR 1254 (10 OR 30%), Method: PREINCUBATION) was “inactive; negative”. For the same compound, the mutagenic call (Test System: AMES SALMONELLA TYPHIMURIUM, Strain/Indicator: TA98, Metabolic Activation: RAT, LIVER, S-9, PHENOBARBITONE, Method: PREINCUBATION) was “inactive; negative”, the mutagenic call (Test System: AMES SALMONELLA TYPHIMURIUM, Strain/Indicator: TA100, Metabolic Activation: HAMSTER, LIVER, S-9, AROCLOR 1254 (10 OR 30%), Method: PREINCUBATION) was “inactive; negative” and the mutagenic call [4] was “inactive; negative”. For the same compound, the mutagenic call (Test System: AMES SALMONELLA TYPHIMURIUM, Strain/Indicator: TA100, Metabolic Activation: RAT, LIVER, S-9, ACETONITRILE (AUTOINDUCTION), Method: PREINCUBATION) was “inactive; negative”, the mutagenic call (Test System: AMES SALMONELLA TYPHIMURIUM, Strain/Indicator: TA100, Metabolic Activation: RAT, LIVER, S-9, AROCLOR 1254 (10 OR 30%), Method: PREINCUBATION) was “inactive; negative” and the mutagenic call (Test System: AMES SALMONELLA TYPHIMURIUM, Strain/Indicator: TA100, Metabolic Activation: RAT, LIVER, S-9, PHENOBARBITONE, Method: PREINCUBATION) was “inactive; negative”. The mutagenic call (Test System: AMES SALMONELLA TYPHIMURIUM, Strain/Indicator: TA1535, Metabolic Activation: HAMSTER, LIVER, S-9, AROCLOR 1254 (10 OR 30%), Method: PREINCUBATION) was “inactive; negative”, the mutagenic call [5] was “inactive; negative” and the mutagenic call (Test System: AMES SALMONELLA TYPHIMURIUM, Strain/Indicator: TA1535, Metabolic Activation: RAT, LIVER, S-9, AROCLOR 1254 (10 OR 30%), Method: PREINCUBATION) was “inactive; negative”. The mutagenic call (Test System: AMES SALMONELLA TYPHIMURIUM, Strain/Indicator: TA1537, Metabolic Activation: HAMSTER, S-9, AROCLOR 1254 (10 OR 30%), Method: PREINCUBATION) was “inactive; negative”, the mutagenic call [6] was “inactive; negative” and the mutagenic call (Test System: AMES SALMONELLA TYPHIMURIUM, Strain/Indicator: TA1537, Metabolic Activation: RAT, LIVER, S-9, AROCLOR 1254 (10 OR 30%), Method: PREINCUBATION) was “inactive; negative”.

`[O-][Cl+]O` was tested, and the mutagenic call (End Point: IN VIVO MICRONUCLEUS, Test System: BONE MARROW POLYCHROMATIC ERYTHROCYTES, Species: MOUSE, Strain/Sex: DDY/MALE, Route: ORAL) was “inactive; negative; significant increase at 150 mg/kg”, the mutagenic call (Test System: AMES SALMONELLA TYPHIMURIUM, Strain/Indicator: TA97, Metabolic Activation: NONE, Method: PREINCUBATION) was “inactive; negative” and the mutagenic call (Test System: AMES SALMONELLA TYPHIMURIUM, Strain/Indicator: TA97, Metabolic Activation: RAT, LIVER, S-9, AROCLOR 1254, Method: PREINCUBATION) was “inactive; negative”. The mutagenic call (Test System: AMES SALMONELLA TYPHIMURIUM, Strain/Indicator: TA102, Metabolic Activation: NONE, Method: PREINCUBATION) was “inactive; negative” and the mutagenic call (Test System: AMES SALMONELLA TYPHIMURIUM, Strain/Indicator: TA102, Metabolic Activation: RAT, LIVER, S-9, AROCLOR 1254, Method: PREINCUBATION) was “inactive; negative”.

In the case of `COc1cccc(N)c1`, the mutagenic call [1] is reported as “active; positive”, the mutagenic call [2] is reported as “inactive; negative” and the mutagenic call (Test System: AMES SALMONELLA TYPHIMURIUM, Strain/Indicator: TA98, Metabolic Activation: HAMSTER, LIVER, S-9, AROCLOR 1254, Method: PREINCUBATION) is reported as “inactive; negative”. For the same compound, the mutagenic call [3] was “inactive; negative”, the mutagenic call (Test System: AMES SALMONELLA TYPHIMURIUM, Strain/Indicator: TA98, Metabolic Activation: RAT, LIVER, S-9, AROCLOR 1254, Method: PREINCUBATION) was “inactive; negative” and the mutagenic call (Test System: AMES SALMONELLA TYPHIMURIUM, Strain/Indicator: TA100, Metabolic Activation: HAMSTER, LIVER, S-9, AROCLOR 1254, Method: PREINCUBATION) was “inactive; negative”. The mutagenic call [4] was “inactive; negative”, the mutagenic call (Test System: AMES SALMONELLA TYPHIMURIUM, Strain/Indicator: TA100, Metabolic Activation: RAT, LIVER, S-9, AROCLOR 1254, Method: PREINCUBATION) was “inactive; negative” and the mutagenic call (Test System: AMES SALMONELLA TYPHIMURIUM, Strain/Indicator: TA102, Metabolic Activation: NONE, Method: STANDARD PLATE) was “inactive; negative”. The mutagenic call (Test System: AMES SALMONELLA TYPHIMURIUM, Strain/Indicator: TA1535, Metabolic Activation: HAMSTER, LIVER, S-9, AROCLOR 1254, Method: PREINCUBATION) was “inactive; negative”, the mutagenic call [5] was “inactive; negative” and the mutagenic call (Test System: AMES SALMONELLA TYPHIMURIUM, Strain/Indicator: TA1535, Metabolic Activation: RAT, LIVER, S-9, AROCLOR 1254, Method: PREINCUBATION) was “inactive; negative”. The mutagenic call (Test System: AMES SALMONELLA TYPHIMURIUM, Strain/Indicator: TA1537, Metabolic Activation: HAMSTER, LIVER, S-9, AROCLOR 1254, Method: PREINCUBATION) was “inactive; negative”, the mutagenic call [6] was “inactive; negative” and the mutagenic call (Test System: AMES SALMONELLA TYPHIMURIUM, Strain/Indicator: TA1537, Metabolic Activation: RAT, LIVER, S-9, AROCLOR 1254, Method: PREINCUBATION) was “inactive; negative”. For the same compound, the mutagenic call (Test System: AMES SALMONELLA TYPHIMURIUM, Strain/Indicator: TA2638, Metabolic Activation: NONE, Method: STANDARD PLATE) was “inactive; negative”, the mutagenic call (Test System: E. COLI, Strain/Indicator: WP2 (PKM101), Metabolic Activation: NONE, Method: STANDARD PLATE) was “inactive; negative” and the mutagenic call (Test System: E. COLI, Strain/Indicator: WP2 UVRA (PKM101), Metabolic Activation: NONE, Method: STANDARD PLATE) was “inactive; negative”.

`CC(C)(Cl)OC(C)(C)Cl` was tested, and the mutagenic call (Test System: AMES SALMONELLA TYPHIMURIUM, Strain/Indicator: TA100, Metabolic Activation: RAT, LIVER, S-9, AROCLOR 1254, Method: DESICCATOR) was “active; positive”.
